“Also recorded” adds a separate entry of the source. No end group written: not given here.
Experiments:
melanoma = assay: Primary tumor development in a subcutaneous model; type: in vivo; conditions: susceptible mice
[1] = test system: melanoma B16F10-Nex2 cells; assay: Alanine scanning series cell adhesion assay (MTT after trypsin-EDTA); type: cell-based, murine; conditions: 1 mM peptide, 24 hours
Description: The peptide RB10 (SEQ ID NO: 9) was engineered to replace each amino acid by alanine using Ala-scan methodology, and thus help evaluate the role of each amino acid on biological effect, specifically on the hyper-adherence observed with 1 mM peptide.
For this purpose, viable melanoma B16F10-Nex2 cells (1×10^4)/well were distributed on a 96-well culture plate and incubated for 4 hours. Fresh media containing 1 mM of the alanine-scanning series for RB10 was added and incubated for 24 hours. Treated cells were detached with 30 μl/well of trypsin-EDTA for five minutes at 37° C. and gently washed with PBS. Cells were incubated for 4 hours with 0.5 mg/mL of MTT [3-(4,5-Dimethylthiazol-2-yl)-2,5-diphenyltetrazolium bromide] in fresh media and the formazan crystals were solubilized adding 1 volume of a 10% SDS solution overnight. Intensity was measured using a plate reader at 570 nm. […] The 100% value for each peptide represented the treated cells that had not been trypsinized.

B16F10-Nex2 cells [2] = assay: Growth inhibition (cell number by image analysis); type: cell-based, murine
Description: Viable B16F10-Nex2 cells (5×10^5)/well were distributed on a 6-well culture plate and incubated for 4 hours. Fresh medium containing 0 or 500 μM of RB10 ([…]) was added to the wells and incubated for 12 hours. Image was captured using a camera (Jenoptik) with the software Progres 2.8. The number of cells was detected using the software pixcavator (intelligent perception). After 12 hours with 0.5 mM of RB10, melanoma cells had fewer cells by 39% (FIG. 15); these cells were still able to proliferate but not to migrate. […] Magnification ×100.

[3] = test system: human cervix cancer HeLa cells; assay: Cell migration, wound healing assay; type: cell-based; conditions: peptide 500 μM, 24 hours
Description: (§1) For the migration studies, 5×10^5 or 10^6 cells were distributed on 6-well plates and let them to adhere for 2 hours at 37° C./5% CO2. The culture medium was changed and the peptide was added at 500 μM overnight. The cell monolayer was “wounded” with a P1000 tip and incubated for 24 hours. Images of untreated cells (control) and peptide treated cells were captured with a JENOPTIK camera. Cell numbers (nuclei) were determined using the Pixcavator software version 5.0.

B16F10-Nex2 cells [4] = assay: Superoxide anion production, dihydroethidium (DHE) assay; type: cell-based, murine; conditions: 1 mM, 18 hours
Description: Based on the internal interactions of components, such as, actin and peroxides in tumor cells, even leading to apoptosis, the production of anion superoxide in tumor cells treated with RB10 was examined by dihydroethidium (DHE) assay.
B16F10-Nex2 cells were treated with 1 mM RB10 for 18 hours or 5 mM H2O2 for 20 minutes. Treated cells with peptide or H2O2 and untreated cells were then incubated with DHE. Conversion of DHE to ethidium by oxidation was observed using fluorescence microscopy (Magnification 600×).

tumor cells = assay: Cell adherence assay (detachment with trypsin/EDTA); type: cell-based; conditions: for adherence at peptide concentration of 1 mM (not suspended by trypsin/EDTA): 1 mM peptide; for adherence of tumor cells to the substrate: 96-well plates, RPMI 10% FCS, seen in B16F10-Nex2.1, U87MG, A5028 melanoma, SKBR3, SiHa, HCT cells
Description: At a lower dose, cells would be detached with trypsin/EDTA at rates inversely proportional to the peptide concentration. Conceivably, peptides RB9 and RB10 affected the cytoskeleton dynamics of cells, thus signaling increased cell adhesion.
B16F10-Nex2.1 cells (5×10^3) and U87-MG cells (1×10^4) were cultivated in 96-well plates and incubated with different concentrations of RB9 (SEQ ID NO: 8) and RB10 (SEQ ID NO: 9) from 0.01 to 1 mM (i.e., 0.01, 0.05, 0.1, 0.25, 0.7, 0.8 and 1 mM of RB9 and RB10 for B16F10-Nex 2.1 cells; and 0.25, 0.5, 0.75 and 1 mM of RB9 and RB10 for U87-MG cells). After 18 hours incubation, viable cells detached with trypsin/EDTA were counted using Trypan blue exclusion staining. All assays were performed in triplicate in two independent experiments.
SKBR3 cells (1×10^4) were cultivated in 96-well plates and incubated with RB9 (SEQ ID NO: 8) and RB10 (SEQ ID NO: 9). After 18 hours incubation, viable cells detached with trypsin/EDTA were counted using Trypan blue exclusion staining. Assays were performed in triplicate in two independent experiments. The A2058 human melanoma cells (1×10^4) were incubated for 4 hours at 37° C. in a humidified chamber with 5% CO2. Fresh media containing different peptide concentrations of RB9 and RB10 ranging from 0 to 1 mM (i.e., 0, 0.25, 0.5 and 1 mM) was added to the wells and incubated for 24 hours. The media was then aspirated, cells were detached with 30 μl/well of trypsin-EDTA for five minutes at 37° C. and viable cells were counted in a Neubauer chamber using Trypan blue. As shown in FIGS. 2A-2D, 50% of cells were trypsin-EDTA resistant at 630 and 610 μM RB9 and RB10, respectively.

[5] = In vivo peptide toxicity evaluation (histopathology); parameters: species or system mice; conditions: 300 μg via i.p., seven consecutive days
Description: Mice were injected with RB9 (SEQ ID NO: 8) for seven consecutive days (300 μg via i.p.) and were sacrificed thereafter for histopathology. […] Also the peptides were not hemolytic as shown in FIG. 21 for RB10M3 (SEQ ID NO: 31).

[6] = test system: human ovary cancer OVCAR-3 cells; assay: Cell migration, wound healing assay; type: cell-based; conditions: peptide 500 μM, 24 hours
Description: as §1

[7] = test system: human melanoma A2058 cells; assay: Cell migration, wound healing assay; type: cell-based; conditions: peptide 500 μM, 24 hours
Description: as §1

[8] = test system: FibroRP primary human fibroblasts; assay: Cell migration, wound healing assay; type: cell-based; conditions: normal non-tumorigenic cells
Description: as §1

[9] = test system: human breast cancer SKBr-3 cells; assay: Cell migration, wound healing assay; type: cell-based; conditions: peptide 500 μM, 24 hours
Description: as §1

[10] = test system: T75 primary human fibroblasts; assay: Cell migration, wound healing assay; type: cell-based; conditions: normal non-tumorigenic cells
Description: as §1

3T3 murine fibroblasts = assay: Cell migration, wound healing assay; type: cell-based; conditions: normal non-tumorigenic cells
Description: as §1

[11] = test system: human colon cancer HCT cells; assay: Cell migration, wound healing assay; type: cell-based; conditions: peptide 500 μM, 24 hours
Description: as §1

Solubility comparison = type: physicochemical
From the text: Peptides have variable half lives in the plasma due to the proteolytic activity and the renal filtration, which are relevant aspects in the pharmacokinetics of drug candidates.

Molecule	protection against development of a primary tumor (melanoma)	trypsin/EDTA-resistant cell adherence [1]	fewer cells than control (B16F10-Nex2 cells [2]; 0.5 mM, 12 hours) [%]	inhibition of growth (B16F10-Nex2 cells [2]; 12 hours incubation)	inhibition of cell migration [3]	reaction with dihydroethidium (anion superoxide production) (B16F10-Nex2 cells [4])	adherence at peptide concentration of 1 mM (not suspended by trypsin/EDTA) (tumor cells)	adherence of tumor cells to the substrate (tumor cells)	toxicity, morphological alterations in liver, lung, heart, kidney and spleen [5]	inhibition of cell migration [6]	inhibition of cell migration [7]	inhibition of cell migration [8]	inhibition of cell migration [9]	inhibition of cell migration [10]	inhibition of cell migration (3T3 murine fibroblasts)	inhibition of cell migration [11]	solubility (comparison) (Solubility comparison)
CARGETARATFAYWGQG-NH2 [RB10, CARGETARATFAYWGQG-NH2]	not against the development of a primary tumor	high trypsin/EDTA-resistant cell adherence	39	partial inhibition	complete or almost complete inhibition	positive	hyper-adherence	dose dependent increase of adherence									
C[C@@H]1NC(=O)[C@H](CCCNC(=N)N)NC(=O)[C@H](C)NC(=O)[C@H]([C@@H](C)O)NC(=O)[C@H](CCC(=O)O)NC(=O)CNC(=O)[C@H](CCCNC(=N)N)NC(=O)[C@H](C)NC(=O)[C@@H](N)CSSC[C@@H](C(N)=O)NC(=O)CNC(=O)[C@H](CCC(N)=O)NC(=O)CNC(=O)[C@H](Cc2c[nH]c3ccccc23)NC(=O)[C@H](Cc2ccc(O)cc2)NC(=O)[C@H](C)NC(=O)[C@H](Cc2ccccc2)NC(=O)[C@H]([C@@H](C)O)NC1=O [RB9, CARGETARATFAYWGQGC-NH2]							hyper-adherence	dose dependent increase of adherence	No signs of toxicity or morphological alterations	half inhibited; also recorded: partial inhibition	completely inhibited; also recorded: complete inhibition	did not affect; also recorded: non-inhibition	completely inhibited; also recorded: complete inhibition	did not affect; also recorded: non-inhibition	did not affect; also recorded: non-inhibition	completely inhibited; also recorded: partial inhibition	more soluble than RB10

— patent US9896512B2, “Antitumor peptide derived from a complementarity determining region of a humanized monoclonal antibody to NAP12B transporter” (Recepta Biopharma S.A., priority 2010, dated 2018)
